Legend:
B16.F10 cells = test: LysoPC-mediated toxicity, cell viability by BrdU assay; type: cell-based, mouse
Method: BrdU proliferation assay: Proliferation and viability were determined by BrdU and WST-1 assay (Roche Diagnostics GmbH, Penzberg, Germany) according to the manufacturer's instructions.
LysoPC was toxic towards B16.F10 cells (p<0.001) at physiological concentrations (≧150 μM) in culture medium (DMEM plus 10% FCS). Thus, different amounts of BSA were added to reduce the concentration of cellular assessable LysoPC (monomolecular and micellar dissolved) and to therefore reduce LysoPC toxicity. Viability of the tumor cells was determined by BrdU assay and adding 10 mg BSA/ml, reduced cell viability was evident above 300 μM LysoPC. Using 20 mg/ml, reduced cell viability was evident above 450 μM LysoPC. Thus, to avoid toxicity of exogenous LysoPC (150 μM to 900 μM) towards the tumor cells during the LysoPC-removal-assay (FIG. 1), addition of 20 mg-40 mg BSA/ml DMEM was essential.

[1] = test system: B16.F10 ELN melanoma cells; test: Experimental lung metastasis model, luciferase assay of lung homogenates; type: in vivo, mouse
Method: Generation of luciferase expressing B16.F10 melanoma cells: For sensitive detection of metastases in vivo in lung and other murine tissues, stably luciferase-transduced B16.F10 ELN melanoma cells were established as recently described (Bornmann, C. et al., Cancer Chemother. Pharmacol. 61:395-405 (2008)).
Animal experiments: Lung metastases were induced by injecting 3×10^5 cells in 100 μl PBS into the tail vein of male C57BI/6N mice (Charles River Laboratories, Sulzfeld, Germany) (Ludwig, R. J. et al., Cancer Res. 64:2743-2750 (2004)). […] In a further experiment, animals were pre-treated 30 min before cell injection with 50 IU (Ludwig, R. J. et al., Cancer Res. 64:2743-2750 (2004)) unfractionated heparin (Ratiopharm GmbH, Ulm, Germany), followed by injection of either long-term 450 μM LysoPC treated or DMEM control medium cultured B16.F10 ELN cells. Experiments were terminated on day 14 (see establishment of the model—FIG. 9). Tissues were removed and stored as snap frozen samples. Metastatic lesions were quantified by homogenizing the tissues in luciferase lysis buffer and measuring in a luciferase assay (Promega E1501) as described (Jantscheff, P. et al., Establishment of human orthotopic LNCaP prostate cancer xenograft metastases model: Effect of Gemcitabine and GemLip. Clin. Exp. Metastasis: in press (2009); Jantscheff, P. et al., Prostate 69:1151-1163 (2009)).
Example 4: Inhibition of in vivo metastasis of B16.F10 ELN cells pretreated with LysoPC. […] For a sensitive quantitative analysis of metastatic spread in the lung, luciferase-transduced B16.F10 ELN cells were used. […]
To establish the mice metastasis model with luciferase-transduced B16.F10 melanoma cells, metastatic lesions in the lung and other tissues (those strongly supplied with blood, spleen, liver, kidney) were investigated at different time points (6 h, 24 h, 7 d, 14 d, and 19 d). Sensitivity of in vitro detection of metastatic lesions was determined as recently described (Jantscheff, P. et al., Prostate 69:1151-1163 (2009)) and limited corresponding to the detection of about 1000 cells in 1 ml tissue lysate (data not shown). Three to four animals were analyzed at each time point and metastatic lesions in lung and other tissues were determined by in vitro luciferase assay in tissue homogenates (see Material and Methods). As shown in A) significant metastasis could be detected first at day 7 and reached a plateau at day 14 in the lung. […] Therefore, in future experiments the animals were analyzed at day 14 and the experiments were limited to this time frame. Using the same scale, no metastatic lesions were detected in the other organs. […]

SMILES: CCCCCCCCCCCCCCCCC(=O)OC[C@@H](O)COP(=O)([O-])OCC[N+](C)(C)C [LysoPC]
- LysoPC concentration with reduced cell viability (B16.F10 cells; 10 mg BSA/ml added): above 300 μM
- LysoPC concentration with reduced cell viability (B16.F10 cells; 20 mg/ml BSA added): above 450 μM
- toxic LysoPC concentration (B16.F10 cells; culture medium DMEM plus 10% FCS, no added BSA, p<0.001): ≥ 150 µM
- metastatic lesions in the lung, mean percentage relative to untreated controls (100%) ([1]; B16.F10 ELN cells treated ex vivo six times with 450 μM LysoPC (long-term), injected i.v., lung luciferase assay day 14): 51.7%
- lung luciferase activity compared to control ([1]; cells treated twice with 300 μM LysoPC (short-term), day 14): slightly but insignificantly enhanced luciferase activity
- macroscopically visible metastatic foci on lung surface ([1]; long-term 450 μM LysoPC group, day 14): clearly smaller numbers of metastatic foci
- macroscopically visible metastatic foci on lung surface ([1]; short-term 300 μM LysoPC group vs control, day 14): no differences were seen between the control and the short-term group

From US20130012473A1, “COMBINED USE OF PHOSPHOLIPID AND SULFATE GROUPS-CARRYING POLYSACCHARIDES FOR INHIBITING METASTATIC SPREAD” (KTB TUMORFORSCHUNGSGESELLSCHAFT MBH, priority 2010, published 2013)
